According to ChEMBL document CHEMBL3997764 (Medchemcomm, 2016):
Values after ≈ are worked out from the molar mass of the structure shown. One block for each compound: values may come before it.

Columns and labels:
[1] = biological target: T1, Nuclear receptor subfamily 1 group I member 2 (Homo sapiens, UniProt O75469); assay: Activation of PXR in human LS180 cells assessed as P-gp induction by measuring intracellular accumulation of rhodamine 123 per ug of total protein at 5 uM preincubated for 48 hrs followed by rhodamine 123 addition after 40 mins and measured after 90 mins by fluorescence assay relative to control; format: cell-based; conditions: 1.5 h
T1 sequence (O75469 whole entry): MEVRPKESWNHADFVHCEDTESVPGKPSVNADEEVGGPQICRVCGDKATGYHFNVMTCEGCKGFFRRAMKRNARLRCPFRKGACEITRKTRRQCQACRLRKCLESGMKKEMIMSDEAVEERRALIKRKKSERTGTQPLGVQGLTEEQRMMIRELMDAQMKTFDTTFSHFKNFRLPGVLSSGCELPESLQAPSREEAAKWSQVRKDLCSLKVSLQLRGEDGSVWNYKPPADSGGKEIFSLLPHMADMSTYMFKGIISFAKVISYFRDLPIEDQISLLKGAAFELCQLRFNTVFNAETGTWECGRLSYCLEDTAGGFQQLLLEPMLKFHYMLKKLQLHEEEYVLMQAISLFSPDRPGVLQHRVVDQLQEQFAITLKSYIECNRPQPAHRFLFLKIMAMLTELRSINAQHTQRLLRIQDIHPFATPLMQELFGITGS

[2] = tested on: LS180; assay: Cytotoxicity against human LS180 cells assessed as reduction in cell viability after 24 hrs by MTT assay; format: cell-based; conditions: LS180, 24 h
[3] = Cytotoxicity against human LS180 cells assessed as cell viability at 30 uM after 24 hrs by MTT assay relative to control; format: cell-based; conditions: read-out: Activity
[4] = Volume of distribution in BALB/c mouse at 1 mg/kg, iv up to 24 hrs by LC-MS/MS analysis; format: ADME, organism-based; conditions: in vivo
[5] = Cmax in BALB/c mouse plasma at 10 mg/kg, po up to 24 hrs by LC-MS/MS analysis; format: ADME, organism-based; set-up: dose 10 mg/kg, route oral
[6] = Thermodynamic aqueous solubility of the compound in phosphate buffered saline at pH 7.4 after overnight incubation; format: physicochemical; conditions: read-out: Therm_solubility
[7] = AUC (0 to infinity) in BALB/c mouse plasma at 10 mg/kg, po up to 24 hrs by LC-MS/MS analysis; format: ADME, organism-based; set-up: dose 10 mg/kg, time infinity, route oral
[8] = biological target: CYP3A4 (Homo sapiens, UniProt P08684); assay: Inhibition of human recombinant CYP3A4 at 10 uM by fluorescence analysis relative to control; format: ADME
[9] = Initial plasma concentration in BALB/c mouse at 1 mg/kg, iv up to 24 hrs by LC-MS/MS analysis; format: ADME, organism-based
[10] = AUC (0 to t) in BALB/c mouse plasma at 10 mg/kg, po up to 24 hrs by LC-MS/MS analysis; format: ADME, organism-based; set-up: dose 10 mg/kg, time < 24 hr, route oral
[11] = Terminal half life in BALB/c mouse plasma at 1 mg/kg, iv by LC-MS/MS analysis; format: ADME, organism-based; conditions: read-out: beta t1/2 (converted)
[12] = biological target: T2, P-gp (expression induced through PXR) (Homo sapiens, UniProt O75469); assay: Activation of PXR in human LS180 cells assessed as induction of P-gp expression at 5 uM by Western blot method relative to control; format: cell-based; conditions: read-out: FC
T2 sequence (O75469 whole entry): T1 sequence (O75469 whole entry)

[13] = Tmax in BALB/c mouse plasma at 10 mg/kg, po up to 24 hrs by LC-MS/MS analysis; format: ADME, organism-based
[14] = biological target: CYP2D6 (Homo sapiens, UniProt P10635); assay: Inhibition of human recombinant CYP2D6 at 10 uM by fluorescence analysis relative to control; format: ADME
[15] = tested on: Mus musculus; assay: Tlast in BALB/c mouse at 1 mg/kg, iv up to 24 hrs by LC-MS/MS analysis; format: ADME, organism-based; conditions: in vivo
[16] = Clearance in BALB/c mouse plasma at 1 mg/kg, iv up to 24 hrs by LC-MS/MS analysis; format: ADME, organism-based
[17] = biological target: CYP2C19 (Homo sapiens, UniProt P33261); assay: Inhibition of human recombinant CYP2C19 at 10 uM by fluorescence analysis relative to control; format: ADME
[18] = Thermodynamic aqueous solubility of the compound in water after overnight incubation; format: physicochemical; conditions: read-out: Therm_solubility
[19] = Thermodynamic aqueous solubility of the compound in simulated gastric fluid at pH 1.2 after overnight incubation; format: physicochemical; conditions: read-out: Therm_solubility
[20] = Oral bioavailability in BALB/c mouse plasma at 10 mg/kg up to 24 hrs by LC-MS/MS analysis; format: ADME, organism-based
[21] = biological target: CYP2C9 (Homo sapiens, UniProt P11712); assay: Inhibition of human recombinant CYP2C9 at 10 uM by fluorescence analysis relative to control; format: ADME
[22] = biological target: T1, Nuclear receptor subfamily 1 group I member 2; assay: Activation of PXR in human LS180 cells assessed as P-gp induction by measuring intracellular accumulation of rhodamine 123 preincubated for 48 hrs followed by rhodamine 123 addition after 40 mins and measured after 90 mins by fluorescence assay; format: cell-based
[23] = Cmax in BALB/c mouse plasma at 1 mg/kg, iv up to 24 hrs by LC-MS/MS analysis; format: ADME, organism-based; set-up: dose 1 mg/kg, route intravenous
[24] = Efflux ratio of permeability in human Caco2 cells after 90 mins by LC-MS/MS analysis; format: ADME, cell-based; conditions: Caco-2
[25] = AUC (0 to infinity) in BALB/c mouse plasma at 1 mg/kg, iv up to 24 hrs by LC-MS/MS analysis; format: ADME, organism-based; set-up: dose 1 mg/kg, route intravenous, time infinity
[26] = Thermodynamic aqueous solubility of the compound in simulated intestinal fluid at pH 6.8 after overnight incubation; format: physicochemical; conditions: read-out: Therm_solubility
[27] = AUC (0 to t) in BALB/c mouse plasma at 1 mg/kg, iv up to 24 hrs by LC-MS/MS analysis; format: ADME, organism-based; set-up: dose 1 mg/kg, time < 24 hr, route intravenous
[28] = Volume of distribution at steady state in BALB/c mouse at 1 mg/kg, iv up to 24 hrs by LC-MS/MS analysis; format: ADME, organism-based; conditions: in vivo, read-out: Vdss
[29] = Terminal half life in BALB/c mouse plasma at 10 mg/kg, po by LC-MS/MS analysis; format: ADME, organism-based; conditions: read-out: beta t1/2 (converted)

Chain of CYP2C9 (P11712 whole entry): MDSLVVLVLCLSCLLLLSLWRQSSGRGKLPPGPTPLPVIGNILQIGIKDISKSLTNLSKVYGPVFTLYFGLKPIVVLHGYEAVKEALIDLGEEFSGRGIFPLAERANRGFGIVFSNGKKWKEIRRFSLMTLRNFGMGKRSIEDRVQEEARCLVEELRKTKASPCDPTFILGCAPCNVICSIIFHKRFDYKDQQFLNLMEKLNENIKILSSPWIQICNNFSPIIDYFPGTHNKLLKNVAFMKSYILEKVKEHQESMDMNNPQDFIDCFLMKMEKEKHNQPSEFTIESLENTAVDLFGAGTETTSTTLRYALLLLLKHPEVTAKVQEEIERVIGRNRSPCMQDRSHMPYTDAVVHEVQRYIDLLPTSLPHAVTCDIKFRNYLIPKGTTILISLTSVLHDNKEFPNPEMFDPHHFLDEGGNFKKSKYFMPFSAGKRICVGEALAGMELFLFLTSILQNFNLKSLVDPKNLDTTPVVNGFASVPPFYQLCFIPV
Chain of CYP2D6 (P10635 whole entry): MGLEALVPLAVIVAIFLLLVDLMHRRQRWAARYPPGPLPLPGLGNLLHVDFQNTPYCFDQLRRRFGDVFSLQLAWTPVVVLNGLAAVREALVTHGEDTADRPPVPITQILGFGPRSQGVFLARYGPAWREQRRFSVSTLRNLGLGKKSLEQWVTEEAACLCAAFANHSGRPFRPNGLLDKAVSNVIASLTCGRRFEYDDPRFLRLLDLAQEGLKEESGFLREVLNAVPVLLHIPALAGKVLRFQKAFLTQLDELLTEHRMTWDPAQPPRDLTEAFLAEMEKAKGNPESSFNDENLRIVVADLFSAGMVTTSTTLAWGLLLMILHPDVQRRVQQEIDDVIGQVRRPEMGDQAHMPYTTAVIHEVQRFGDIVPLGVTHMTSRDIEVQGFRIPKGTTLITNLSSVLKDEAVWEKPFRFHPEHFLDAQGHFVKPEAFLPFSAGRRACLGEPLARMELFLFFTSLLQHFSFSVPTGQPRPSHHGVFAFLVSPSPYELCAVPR
Chain of CYP3A4 (P08684 whole entry): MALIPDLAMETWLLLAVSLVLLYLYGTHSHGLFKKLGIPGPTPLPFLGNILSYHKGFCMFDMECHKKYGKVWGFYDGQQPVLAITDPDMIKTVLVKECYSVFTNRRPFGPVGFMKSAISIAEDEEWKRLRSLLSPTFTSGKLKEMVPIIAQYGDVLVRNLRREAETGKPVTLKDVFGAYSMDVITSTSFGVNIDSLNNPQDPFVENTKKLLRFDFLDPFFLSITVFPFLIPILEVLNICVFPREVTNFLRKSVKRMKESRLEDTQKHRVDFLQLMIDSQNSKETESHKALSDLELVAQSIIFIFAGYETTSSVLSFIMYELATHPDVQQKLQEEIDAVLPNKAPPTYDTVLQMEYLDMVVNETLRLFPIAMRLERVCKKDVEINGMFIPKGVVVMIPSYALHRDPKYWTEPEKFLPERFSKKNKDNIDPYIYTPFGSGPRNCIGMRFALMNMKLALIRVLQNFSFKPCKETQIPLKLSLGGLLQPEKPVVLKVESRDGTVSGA
Chain of CYP2C19 (P33261 whole entry): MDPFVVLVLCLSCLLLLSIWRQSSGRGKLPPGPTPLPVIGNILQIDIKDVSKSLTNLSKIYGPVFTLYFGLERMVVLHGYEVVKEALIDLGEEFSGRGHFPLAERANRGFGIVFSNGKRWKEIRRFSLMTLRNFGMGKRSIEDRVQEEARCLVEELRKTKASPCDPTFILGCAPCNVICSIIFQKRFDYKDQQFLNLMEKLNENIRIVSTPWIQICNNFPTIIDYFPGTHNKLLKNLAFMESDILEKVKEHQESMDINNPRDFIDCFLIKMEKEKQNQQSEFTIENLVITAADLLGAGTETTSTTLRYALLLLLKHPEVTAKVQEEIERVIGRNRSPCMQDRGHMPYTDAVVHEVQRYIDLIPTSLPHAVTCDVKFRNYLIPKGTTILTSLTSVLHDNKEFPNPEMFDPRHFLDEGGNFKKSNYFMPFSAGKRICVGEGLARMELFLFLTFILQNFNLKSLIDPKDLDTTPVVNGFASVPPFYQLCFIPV

SMILES: CC(C)OP(=O)(OC(C)C)C(=Cc1cc(C(C)(C)C)c(O)c(C(C)(C)C)c1)P(=O)(OC(C)C)OC(C)C
Activity [1]: 66.93%
IC50 [2]: > 30 µM
viability at 24 h, 30 µM [3]: 100%

SMILES: COc1cc(C=C(P(=O)(OC(C)C)OC(C)C)P(=O)(OC(C)C)OC(C)C)ccc1F
Activity [1]: 70%
IC50 [2]: > 30 µM
viability at 24 h, 30 µM [3]: 86%

SMILES: CC(C)OP(=O)(OC(C)C)C(=Cc1ccc(N(C)C)cc1)P(=O)(OC(C)C)OC(C)C
Activity [1]: 65.32%
IC50 [2]: > 30 µM
viability at 24 h, 30 µM [3]: 100%

SMILES: CCOP(=O)(/C=C/c1cc(F)cc(F)c1)OCC
Activity [1]: 91.31%
IC50 [2]: > 30 µM
viability at 24 h, 30 µM [3]: 100%

SMILES: CCOP(=O)(C#Cc1ccccc1)OCC
Activity [1]: 77.64%
IC50 [2]: > 30 µM
viability at 24 h, 30 µM [3]: 100%

SMILES: CCOP(=O)(C#Cc1cccc(C(F)(F)F)c1)OCC
Activity [1]: 75.16%
IC50 [2]: > 30 µM
viability at 24 h, 30 µM [3]: 100%

SMILES: CCOP(=O)(/C=C/c1ccc(F)c(Br)c1)OCC
Activity [1]: 97.7%
IC50 [2]: > 30 µM
viability at 24 h, 30 µM [3]: 100%

SMILES: CC(C)OP(=O)(OC(C)C)C(=Cc1ccc2c(c1)OCO2)P(=O)(OC(C)C)OC(C)C
Activity [1]: 83.27%
IC50 [2]: > 30 µM
viability at 24 h, 30 µM [3]: 100%

Further lines, with some results ahead:

Activity [1]: 70.48%
SMILES: CC(C)OP(=O)(OC(C)C)C(=Cc1cccc2ncccc12)P(=O)(OC(C)C)OC(C)C
IC50 [2]: > 30 µM
viability at 24 h, 30 µM [3]: 100%

Activity [1]: 65.69%
SMILES: CCOP(=O)(OCC)C(=Cc1ccccc1[N+](=O)[O-])P(=O)(OCC)OCC
IC50 [2]: > 30 µM
viability at 24 h, 30 µM [3]: 100%

Activity [1]: 67.84%
SMILES: CC(C)OP(=O)(OC(C)C)C(=Cc1ccc([N+](=O)[O-])o1)P(=O)(OC(C)C)OC(C)C
viability at 24 h, 30 µM [3]: 41%

Activity [1]: 88.3%
SMILES: CCOP(=O)(OCC)C(=Cc1ccc([N+](=O)[O-])o1)P(=O)(OCC)OCC
IC50 [2]: > 30 µM
viability at 24 h, 30 µM [3]: 92%

Activity [1]: 90.85%
SMILES: CCOP(=O)(OCC)C(Nc1ccccc1)c1ccc(Cl)cc1 (configuration not stated)
IC50 [2]: > 30 µM
viability at 24 h, 30 µM [3]: 100%

Vd [4]: 1.81 L/kg
Cmax [5]: 870 ng/mL
solubility thermodynamic [6]: > 1500 µg/mL
AUC(0-inf) [7]: 2070 ng·h/mL
inhibition at 10 µM [8]: 19%
C0 at 24 h [9]: 1150 ng/mL
AUC(0-t) at 24 h [10]: 1970 ng·h/mL
half-life [11]: 41.4 min
fold induction at 5 µM [12]: 7.2
Tmax [13]: 30 min
Activity [1]: 58.09%
inhibition at 10 µM [14]: 20%
Tlast [15]: 4 h
clearance [16]: 30.4 mL/min/kg
inhibition at 10 µM [17]: 0%
solubility thermodynamic [18]: > 1500 µg/mL
solubility thermodynamic [19]: > 1500 µg/mL
bioavailability [20]: 37.6%
inhibition at 10 µM [21]: 0%
EC50 [22]: 0.271 µM
Cmax [23]: 811 ng/mL
efflux ratio at 1.5 h [24]: 0.9
AUC(0-inf) [25]: 549 ng·h/mL
solubility thermodynamic [26]: 40 µg/mL (≈ 0.106 mM)
AUC(0-t) at 24 h [27]: 543 ng·h/mL
Vd [28]: 1.1 L/kg
half-life [29]: 209 min
SMILES: CCOP(=O)(OCC)C(=Cc1ccccc1)P(=O)(OCC)OCC
IC50 [2]: > 30 µM
viability at 24 h, 30 µM [3]: 100%
